# Values quoted from earlier work, collected in patent US20060292651A1, “Protein labelling with oº-alkylguanine-dna alkyltrnsferase” (priority 2002, published 2006).
# Molecular target: T1, hAGT (Homo sapiens, UniProt P16455)
# T1 sequence (P16455 1-207): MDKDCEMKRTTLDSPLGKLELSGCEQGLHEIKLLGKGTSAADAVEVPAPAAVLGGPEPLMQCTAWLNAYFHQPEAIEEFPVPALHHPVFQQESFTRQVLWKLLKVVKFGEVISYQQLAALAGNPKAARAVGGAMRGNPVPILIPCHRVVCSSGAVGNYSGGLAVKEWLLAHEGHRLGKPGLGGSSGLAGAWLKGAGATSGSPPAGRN
# Settings: reaction with hAGT
smiles,measurement,value
Nc1nc(OCc2ccccc2)c2nc[nH]c2n1 [O^6-benzyl-guanine],second order rate constant,approximately 10^3 sec^−1 M^−1
